For assay [1], the system named is primary human T-cells. In words: Proliferation assay after 5 days (CellTiter-Glo, CD3 stimulation; PBS counter screen). The format is cell-based. Conditions: Homo sapiens, T-cell, 120 h, CD3 stimulation; for Emax: 5 days, normalized to reference compound A1 as stimulator control = 100%, DMSO neutral control, read-out: Emax proliferation (% activation); for EC50: primary human T-cells, CellTiter-Glo after 5 days, EC50 of fitted sigmoidal curve, read-out: Tcell Proliferation CD3 EC50. The gist of the method:
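Proliferation is measured 5 days post-treatment as ATP-dependent luminescence. Flags mark compounds that activated unstimulated cells or harmed viability.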

The subject of assay [2] is primary human T-cells.

Where two headings read alike, the source gives them in different places.

On to `N#CC1(c2nnc(-c3cc4c(cc3F)S(=O)(=O)C[C@H](N)C(=O)N4Cc3ccc(Cl)cc3)o2)CC1` [Example 118, 1-[5-[(3R)-3-amino-5-[(4-chlorophenyl)methyl]-8-fluoro-1,1,4-trioxo-2,3-dihydro-1λ^6,5-benzothiazepin-7-yl]-1,3,4-oxadiazol-2-yl]cyclopropanecarbonitrile], for which, in the assay on primary human T-cells [1], the Emax is 99%. The EC50 stood at 669 nM in the assay on primary human T-cells [1] and 228 nM with primary human T-cells [2].

Take `CC(=O)N1CCC2CC2(c2nnc(-c3cc4c(cc3F)S(=O)(=O)C[C@H](N)C(=O)N4Cc3ccc(Cl)cc3)o2)C1` (stereo partly drawn) [Example 180, (3R)-7-[5-(3-acetyl-3-azabicyclo[4.1.0]heptan-1-yl)-1,3,4-oxadiazol-2-yl]-3-amino-5-[(4-chlorophenyl)methyl]-8-fluoro-1,1-dioxo-2,3-dihydro-1λ^6,5-benzothiazepin-4-one]: in the assay on primary human T-cells [1], the Emax was found to be 103% and the EC50 was 5710 nM. The EC50 in the assay on primary human T-cells [2] came to 2380 nM.

In the case of `C[C@@H](COC(F)(F)F)Nc1nnc(-c2cc3c(cc2F)S(=O)(=O)C[C@H](N)C(=O)N3Cc2ccc(Cl)cc2)o1` [Example 503, (3R)-3-amino-5-[(4-chlorophenyl)methyl]-8-fluoro-1,1-dioxo-7-[5-[[(1S)-1-methyl-2-(trifluoromethoxy)ethyl]amino]-1,3,4-oxadiazol-2-yl]-2,3-dihydro-1λ^6,5-benzothiazepin-4-one], in the assay with primary human T-cells [1], the Emax turned out to be 135% and the EC50 was determined as 371 nM. In addition, in the assay on primary human T-cells [2], the EC50 was determined as 3090 nM.

For `CC(C)Cc1nnc(-c2cc3c(cc2F)S(=O)(=O)C[C@H](N)C(=O)N3Cc2ccc(Cl)cc2)o1` [Example 101, (3R)-3-amino-5-[(4-chlorophenyl)methyl]-8-fluoro-7-(5-isobutyl-1,3,4-oxadiazol-2-yl)-1,1-dioxo-2,3-dihydro-1λ^6,5-benzothiazepin-4-one], the Emax with primary human T-cells [1] was found to be 121%. Further, the EC50 in the assay on primary human T-cells [1] stood at 49.1 nM; in the assay with primary human T-cells [2], 72.2 nM.

As to `CCN1CCC(C)(c2nc(-c3cc4c(cc3F)S(=O)(=O)C[C@H](N)C(=O)N4Cc3ccc(Cl)cc3)no2)CC1` [Example 306, (3R)-3-amino-5-[(4-chlorophenyl)methyl]-7-[5-(1-ethyl-4-methyl-4-piperidyl)-1,2,4-oxadiazol-3-yl]-8-fluoro-1,1-dioxo-2,3-dihydro-1λ^6,5-benzothiazepin-4-one], in the assay on primary human T-cells [1], the Emax was 79% and the EC50 came to 3480 nM. The same compound came in with an EC50 in the assay on primary human T-cells [2] of 571 nM.

`CN(C)C(=O)c1nc(-c2cc3c(cc2F)S(=O)(=O)C[C@H](N)C(=O)N3Cc2ccc(Cl)cc2)no1` [Example 299, 3-[(3R)-3-amino-5-[(4-chlorophenyl)methyl]-8-fluoro-1,1,4-trioxo-2,3-dihydro-1λ^6,5-benzothiazepin-7-yl]-N,N-dimethyl-1,2,4-oxadiazole-5-carboxamide]: in the assay with primary human T-cells [1], the Emax was 111% and the EC50 came out at 5010 nM. Moreover, the EC50 with primary human T-cells [2] worked out at 2500 nM.

As to `CC(C)(F)c1nc(-c2cc3c(cc2F)S(=O)(=O)C[C@H](N)C(=O)N3Cc2ccc(F)cc2)no1` [Example 358, (3R)-3-amino-8-fluoro-7-[5-(1-fluoro-1-methyl-ethyl)-1,2,4-oxadiazol-3-yl]-5-[(4-fluorophenyl)methyl]-1,1-dioxo-2,3-dihydro-1λ^6,5-benzothiazepin-4-one], in the assay on primary human T-cells [1], the Emax came out at 127% and the EC50 stood at 1860 nM. Besides, in the assay with primary human T-cells [2], the EC50 was 9450 nM.

On to `CC(C)(O)Cn1nnc(-c2cc3c(cc2F)S(=O)(=O)C[C@H](N)C(=O)N3Cc2ccc(Cl)cc2)n1` [Example 27, (3R)-3-amino-5-[(4-chlorophenyl)methyl]-8-fluoro-7-[2-(2-hydroxy-2-methyl-propyl)tetrazol-5-yl]-1,1-dioxo-2,3-dihydro-1λ^6,5-benzothiazepin-4-one], for which, in the assay on primary human T-cells [1], the Emax was found to be 103% and the EC50 is 2050 nM. Besides, the EC50 in the assay with primary human T-cells [2] turned out to be 1230 nM.

Consider `CC(F)(F)CNc1nnc(-c2cc3c(cc2F)S(=O)(=O)C[C@H](N)C(=O)N3Cc2ccc(Cl)cc2)o1` [Example 502, (3R)-3-amino-5-[(4-chlorophenyl)methyl]-7-[5-(2,2-difluoropropylamino)-1,3,4-oxadiazol-2-yl]-8-fluoro-1,1-dioxo-2,3-dihydro-1λ^6,5-benzothiazepin-4-one], for which, in the assay on primary human T-cells [1], the Emax came to 72%. The EC50 with primary human T-cells [1] was 4460 nM; in the assay with primary human T-cells [2], over 10000 nM.

Turning to `COC(=O)N1CC2CC(c3nc(-c4cc5c(cc4F)S(=O)(=O)C[C@H](N)C(=O)N5Cc4ccc(Cl)cc4)no3)(C2)C1` [Example 317, methyl 1-[3-[(3R)-3-amino-5-[(4-chlorophenyl)methyl]-8-fluoro-1,1,4-trioxo-2,3-dihydro-1λ^6,5-benzothiazepin-7-yl]-1,2,4-oxadiazol-5-yl]-3-azabicyclo[3.1.1]heptane-3-carboxylate], the Emax in the assay on primary human T-cells [1] came out at 142%. Moreover, the EC50 in the assay with primary human T-cells [2] was 2230 nM.

With `COC(=O)N1CC(Nc2nnc(-c3cc4c(cc3F)S(=O)(=O)C[C@H](N)C(=O)N4Cc3ccc(Cl)cc3)o2)CC(F)(F)C1` (stereo partly drawn) [Example 490, methyl 3,3-difluoro-5-[[5-[(3R)-3-amino-5-[(4-chlorophenyl)methyl]-8-fluoro-1,1,4-trioxo-2,3-dihydro-1λ^6,5-benzothiazepin-7-yl]-1,3,4-oxadiazol-2-yl]amino]piperidine-1-carboxylate], the Emax in the assay with primary human T-cells [1] worked out at 72%. Also, the EC50 is 6050 nM in the assay with primary human T-cells [1] and 3760 nM with primary human T-cells [2].

With `CC(C)(C)c1nnc(-c2cc3c(cc2F)S(=O)(=O)C[C@H](NC(=O)CCCN)C(=O)N3Cc2ccc(Cl)cc2)o1` [Example 267, 4-amino-N-[(3R)-7-(5-tert-butyl-1,3,4-oxadiazol-2-yl)-5-[(4-chlorophenyl)methyl]-8-fluoro-1,1,4-trioxo-2,3-dihydro-1λ^6,5-benzothiazepin-3-yl]butanamide], in the assay on primary human T-cells [1], the Emax was found to be 74% and the EC50 is 3070 nM. Further, the EC50 in the assay on primary human T-cells [2] is 5440 nM.

`CC(C)(C)NC(=O)c1nnc(-c2cc3c(cc2F)S(=O)(=O)C[C@H](N)C(=O)N3Cc2ccc(Cl)cc2)o1` [Example 90, N-tert-butyl-5-[(3R)-3-amino-5-[(4-chlorophenyl)methyl]-8-fluoro-1,1,4-trioxo-2,3-dihydro-1λ^6,5-benzothiazepin-7-yl]-1,3,4-oxadiazole-2-carboxamide]: in the assay on primary human T-cells [1], the Emax was 96%. The EC50 in the assay on primary human T-cells [1] came to 2340 nM; with primary human T-cells [2], 819 nM.

Consider `CC(C)(C)c1nnc(-c2cc3c(cc2F)S(=O)(=O)C[C@H](N)C(=O)N3Cc2ccc(Cl)cc2CN)o1` [Example 256, (3R)-3-amino-5-[[2-(aminomethyl)-4-chloro-phenyl]methyl]-7-(5-tert-butyl-1,3,4-oxadiazol-2-yl)-8-fluoro-1,1-dioxo-2,3-dihydro-1λ^6,5-benzothiazepin-4-one], for which, in the assay with primary human T-cells [1], the Emax turned out to be 3% and the EC50 is over 20000 nM. In the assay on primary human T-cells [2], this compound came in with an EC50 of over 20000 nM.

For the compound `CN[C@@H](C)C(=O)N[C@H]1CS(=O)(=O)c2cc(F)c(-c3nnc(C(C)(C)C)o3)cc2N(Cc2ccc(Cl)cc2)C1=O` [Example 268, (2S)—N-[(3R)-7-(5-tert-butyl-1,3,4-oxadiazol-2-yl)-5-[(4-chlorophenyl)methyl]-8-fluoro-1,1,4-trioxo-2,3-dihydro-1λ^6,5-benzothiazepin-3-yl]-2-(methylamino)propanamide], the Emax with primary human T-cells [1] was 95%. The EC50 with primary human T-cells [1] was 249 nM; with primary human T-cells [2], 7820 nM.

Take `N[C@H]1CS(=O)(=O)c2cc(F)c(-c3nnc(CCC(F)(F)F)o3)cc2N(Cc2ccc(Cl)cc2)C1=O` [Example 67, (3R)-3-Amino-5-[(4-chlorophenyl)methyl]-8-fluoro-1,1-dioxo-7-[5-(3,3,3-trifluoropropyl)-1,3,4-oxadiazol-2-yl]-2,3-dihydro-1λ^6,5-benzothiazepin-4-one]: in the assay with primary human T-cells [1], the Emax was found to be 165% and the EC50 was found to be 112 nM. In the assay with primary human T-cells [2], this compound returned an EC50 of 199 nM.

On to `COC(F)(c1nc(-c2cc3c(cc2F)S(=O)(=O)C[C@H](N)C(=O)N3Cc2ccccc2)no1)C(F)(F)F` (stereo partly drawn) [Example 351, (3R)-3-amino-5-benzyl-8-fluoro-1,1-dioxo-7-[5-(1,2,2,2-tetrafluoro-1-methoxy-ethyl)-1,2,4-oxadiazol-3-yl]-2,3-dihydro-1λ^6,5-benzothiazepin-4-one], for which, in the assay on primary human T-cells [1], the Emax is 107% and the EC50 was found to be 113 nM. The compound further gave an EC50 with primary human T-cells [2] of 288 nM.

Regarding `NC1CN(c2nnc(-c3cc4c(cc3F)S(=O)(=O)C[C@H](N)C(=O)N4Cc3ccc(Cl)cc3)o2)CCC1(F)F` (stereo partly drawn) [Example 467, (3R)-3-amino-7-[5-(3-amino-4,4-difluoro-1-piperidyl)-1,3,4-oxadiazol-2-yl]-5-[(4-chlorophenyl)methyl]-8-fluoro-1,1-dioxo-2,3-dihydro-1λ^6,5-benzothiazepin-4-one], in the assay with primary human T-cells [1], the Emax came out at 102% and the EC50 was found to be 880 nM. The compound further displayed an EC50 with primary human T-cells [2] of 474 nM.

As for `N[C@H]1CS(=O)(=O)c2cc(F)c(-c3noc(N4[C@@H]5CC[C@H]4COC5)n3)cc2N(Cc2ccc(Cl)cc2)C1=O` [Example 200, (3R)-3-amino-5-[(4-chlorophenyl)methyl]-8-fluoro-1,1-dioxo-7-[5-[(1R,5S)-3-oxa-8-azabicyclo[3.2.1]octan-8-yl]-1,2,4-oxadiazol-3-yl]-2,3-dihydro-1λ^6,5-benzothiazepin-4-one], in the assay with primary human T-cells [1], the Emax is 88% and the EC50 amounted to 37.9 nM. In the assay with primary human T-cells [2], this compound had an EC50 of 142 nM.

Turning to `CC(=O)N1CC2CC(c3nnc(-c4cc5c(cc4F)S(=O)(=O)C[C@H](N)C(=O)N5Cc4ccc(Cl)cc4)o3)(C2)C1` [Example 173, (3R)-7-[5-(3-acetyl-3-azabicyclo[3.1.1]heptan-1-yl)-1,3,4-oxadiazol-2-yl]-3-amino-5-1[(4-chlorophenyl)methyl]-8-fluoro-1,1-dioxo-2,3-dihydro-1λ^6,5-benzothiazepin-4-one], in the assay with primary human T-cells [1], the Emax was 89% and the EC50 came out at 596 nM. The compound further showed an EC50 with primary human T-cells [2] of 2180 nM.

The record behind these values is patent US20240368150A1 (Hoffmann-La Roche Inc., priority 2021, published 2024).
